Data set [1] concerns Mycobacterium tuberculosis. Nature of the data set: Antimycobacterial activity against Mycobacterium tuberculosis H37Rv after 3 days by rapid direct susceptibility test. In kind it is functional. The settings on record: 72 h.
Data set [2] can be described thus: Cytotoxicity against African green monkey Vero cells assessed as reduction in cell viability after 72 hrs by MTT assay. In kind it is cell-based. The note with it: chlorocebus sabaeus. On the technique in general: Tetrazolium dyes change colour on reduction, which living cells bring about.
Data set [3] is described as follows: Selectivity index, ratio of CC50 against African green monkey Vero cells to MIC for Mycobacterium tuberculosis H37Rv. In kind it is toxicity. The note with it: read-out: Selectivity Index.
Data set [4] can be described thus: AUC (0 to infinity) in ICR mouse at 50 mg/kg, po by HPLC analysis. On the set-up: dose 50 mg/kg, time infinity, route oral. It is filed as ADME, organism-based. The settings on record: in vivo.
Data set [5] in a line: Tmax in ICR mouse at 50 mg/kg, po by HPLC analysis. The settings on record: in vivo. In kind it is ADME, organism-based.
Data set [6] can be described thus: Cmax in ICR mouse at 50 mg/kg, po by HPLC analysis. It is filed as ADME, organism-based. Further details: dose 50 mg/kg, route oral. The settings on record: in vivo.
For data set [7], the system named is Mycobacterium tuberculosis. Nature of the data set: Potency index, ratio of rifampicin MIC to compound MIC for antimycobacterial activity against Mycobacterium tuberculosis H37Rv. It is filed as functional.
The nature of data set [8]: Elimination half life in ICR mouse at 50 mg/kg, po by HPLC analysis. It is filed as ADME, organism-based. The settings on record: in vivo, read-out: beta t1/2 (converted).
The test system of data set [9] is Mycobacterium tuberculosis. Nature of the data set: Potency index, ratio of moxifloxacin MIC to compound MIC for antimycobacterial activity against Mycobacterium tuberculosis H37Rv. In kind it is functional.
A short description of data set [10]: Half life in mouse microsomes. In kind it is ADME, Microsome.

Converted amounts (≈) assume the structure as drawn.

As to `NNC(=O)c1ccncc1` [ISONIAZID], in data set [1], the MIC (usually the least concentration at which growth counts as inhibited) is 0.05 µg/mL (≈ 0.365 µM). The CC50 (as a rule, the concentration at which the toxic effect on the cells reaches its halfway point) at 72 h in data set [2] stood at 128 µg/mL (≈ 933 µM). Besides, in data set [3], the selectivity ratio was 2560.
For `CO/N=C1/C(=O)N(CCCn2cc(CN3CCC[C@@H]4CN(c5c(F)cc6c(=O)c(C(=O)O)cn(C7CC7)c6c5OC)C[C@@H]43)nn2)c2ccccc21`, in that order: 0.1 µg/mL (≈ 0.143 µM), 16 µg/mL (≈ 22.9 µM) and 160.
Consider `COc1c(N2C[C@@H]3CCCN[C@@H]3C2)c(F)cc2c(=O)c(C(=O)O)cn(C3CC3)c12` [MOXIFLOXACIN], for which the AUC(0-inf) (commonly the area under the concentration-time curve extrapolated to infinity) in data set [4] was 7030 ng·h/mL. Moreover, in data set [1], 0.1 µg/mL (≈ 0.249 µM) was the least that counted as inhibitory (MIC). In data set [5], the Tmax – broadly, the time at which the peak concentration occurs – was 1.08 h. The Cmax – broadly, the peak of the concentration-time curve – in data set [6] worked out at 2730 ng/mL. In addition, the CC50 at 72 h in data set [2] turned out to be 128 µg/mL (≈ 319 µM).
In [4], `CO/N=C1/C(=O)N(CCCn2cc(CN3CCC[C@@H]4CN(c5c(F)cc6c(=O)c(C(=O)O)cn(C7CC7)c6c5OC)C[C@@H]43)nn2)c2ccc(F)cc21` returned an AUC(0-inf) of 1240 ng·h/mL. In addition, the Ratio in data set [7] and in data set [9] was 2 - 8 throughout. Besides, the values for the half-life in data set [8] and in [10] were 3.87 h and 0.228 h, respectively. The compound further came in with an MIC in [1] of 0.05 µg/mL (≈ 0.0698 µM). Besides, in data set [5], the Tmax worked out at 1.33 h. Moreover, the Cmax in data set [6] is 243 ng/mL. In [2], the CC50 at 72 h was determined as 4 µg/mL (≈ 5.58 µM). Moreover, the selectivity ratio in data set [3] stood at 80.
The compound `COc1c(N2C[C@H]3CCCN(Cc4cn(CCCN5C(=O)/C(=N/O)c6cc(C)ccc65)nn4)[C@H]3C2)c(F)cc2c(=O)c(C(=O)O)cn(C3CC3)c12` came in with an MIC in data set [1] of 1.56 µg/mL (≈ 2.23 µM). Besides, the CC50 at 72 h in [2] is 8 µg/mL (≈ 11.4 µM). For the same compound, in data set [3], the selectivity ratio came out at 5.1.
Taken in the same sequence, the figures for `CO/N=C1/C(=O)N(CCCn2cc(CN3CCC[C@@H]4CN(c5c(F)cc6c(=O)c(C(=O)O)cn(C7CC7)c6c5OC)C[C@@H]43)nn2)c2ccc(C)cc21` were 0.39 µg/mL (≈ 0.547 µM), 8 µg/mL (≈ 11.2 µM) and 20.5.
For `COc1c(N2C[C@H]3CCCN(Cc4cn(CCCN5C(=O)C(=O)c6cc(F)ccc65)nn4)[C@H]3C2)c(F)cc2c(=O)c(C(=O)O)cn(C3CC3)c12`, in that order: 0.78 µg/mL (≈ 1.13 µM), 16 µg/mL (≈ 23.3 µM) and 20.5.
Taken in the same sequence, the figures for `CO[C@H]1/C=C/O[C@@]2(C)Oc3c(C)c(O)c4c(O)c(c(/C=N/N5CCN(C)CC5)c(O)c4c3C2=O)NC(=O)/C(C)=C\C=C\[C@H](C)[C@H](O)[C@@H](C)[C@@H](O)[C@@H](C)[C@H](OC(C)=O)[C@@H]1C` [RIFAMPIN] were 0.39 µg/mL (≈ 0.474 µM), 512 µg/mL (≈ 622 µM) and 1310.
Compound `CCO/N=C1/C(=O)N(CCCn2cc(CN3CCC[C@@H]4CN(c5c(F)cc6c(=O)c(C(=O)O)cn(C7CC7)c6c5OC)C[C@@H]43)nn2)c2ccccc21` yielded an MIC in data set [1] of 0.39 µg/mL (≈ 0.547 µM). The CC50 at 72 h in [2] came to 16 µg/mL (≈ 22.4 µM). Also, in data set [3], the selectivity ratio is 41.
Taken in the same sequence, the figures for `COc1c(N2C[C@H]3CCCN(Cc4cn(CCCN5C(=O)C(=O)c6ccccc65)nn4)[C@H]3C2)c(F)cc2c(=O)c(C(=O)O)cn(C3CC3)c12` were 1.56 µg/mL (≈ 2.33 µM), 16 µg/mL (≈ 23.9 µM) and 10.2.
For `COc1c(N2C[C@H]3CCCN(Cc4cn(CCCN5C(=O)C(=O)c6cc(C)ccc65)nn4)[C@H]3C2)c(F)cc2c(=O)c(C(=O)O)cn(C3CC3)c12`, in that order: 0.39 µg/mL (≈ 0.57 µM), 32 µg/mL (≈ 46.8 µM) and 82.
For `COc1c(N2C[C@H]3CCCN(Cc4cn(CCCN5C(=O)/C(=N/O)c6ccccc65)nn4)[C@H]3C2)c(F)cc2c(=O)c(C(=O)O)cn(C3CC3)c12`, in that order: 0.78 µg/mL (≈ 1.14 µM), 8 µg/mL (≈ 11.7 µM) and 10.2.
Take `CCO/N=C1/C(=O)N(CCCn2cc(CN3CCC[C@@H]4CN(c5c(F)cc6c(=O)c(C(=O)O)cn(C7CC7)c6c5OC)C[C@@H]43)nn2)c2ccc(C)cc21`: inhibition of growth in data set [1] (MIC) required 0.39 µg/mL (≈ 0.537 µM). Also, in data set [2], the CC50 at 72 h turned out to be 4 µg/mL (≈ 5.5 µM). Further, in data set [3], the selectivity ratio was found to be 10.2.
In [1], `COc1c(N2C[C@H]3CCCN(Cc4cn(CCCN5C(=O)/C(=N/O)c6cc(F)ccc65)nn4)[C@H]3C2)c(F)cc2c(=O)c(C(=O)O)cn(C3CC3)c12` returned an MIC of 0.78 µg/mL (≈ 1.11 µM). Further, the CC50 at 72 h in data set [2] amounted to 2 µg/mL (≈ 2.85 µM). Further, the selectivity ratio in data set [3] is 2.6.
For `CCO/N=C1/C(=O)N(CCCn2cc(CN3CCC[C@@H]4CN(c5c(F)cc6c(=O)c(C(=O)O)cn(C7CC7)c6c5OC)C[C@@H]43)nn2)c2ccc(F)cc21`, in that order: 0.2 µg/mL (≈ 0.274 µM), 4 µg/mL (≈ 5.47 µM) and 20.

(Values after ChEMBL document CHEMBL4138241, “Synthesis and in vitro evaluation of novel substituted isatin-propylene-1H-1,2,3-triazole-4-methylene-moxifloxacin hybrids for their anti-mycobacterial activities” (Eur J Med Chem, 2018).)
